# Measured values taken from patent US20130040933A1, “AZAINDOLES AS JANUS KINASE INHIBITORS” (priority 2010, published 2013).
# Biological target: T1, rhJAK3 (Homo sapiens, UniProt P52333)
# T1 construct: recombinant purified GST-tagged catalytic domain for each enzyme; purchased Invitrogen PV3855
# Assay: JAK Biochemical HTRF Assay (JAK3)
# Conditions: recombinant purified GST-tagged catalytic domain, HTRF format, [ATP] 1.7 μM; read-out: JAK3 IC50
# Method: JAK Biochemical HTRF Assay Protocol
# The ability of compounds to inhibit the activity of JAK1, JAK2, JAK3, and TYK2 was measured using a recombinant purified GST-tagged catalytic domain for each enzyme (Invitrogen JAK1 #PV4774, JAK2 #PV4210, JAK3 #PV3855, TYK2 #PV4790) in an HTRF format biochemical assay. The reactions employed a common peptide substrate, LCB-EQEDEPEGDYFEWLW-NH2. The basic assay protocol is as follows: First, […] of diluted compounds in DMSO were dispensed into the wells of a dry 384-well Black plate (Greiner #781076) using a Labcyte Echo 555 acoustic dispenser. Subsequent reagent additions employed a Thermo Multidrop Combi nL. Next, 10 μL of 2× enzyme and 2× substrate in 1× assay buffer (Invitrogen kinase buffer #PV3189, 2 mM DTT, 0.05% BSA) were added to the wells and preincubated for 30 min at room temperature to allow compound binding to equilibrate. After equilibration, 10 μl, of 2×ATP in 1× assay buffer was added to initiate the kinase reaction and the plates were incubated at room temperature for 120 min. At the end of the incubation, 20 μL of 2× stop buffer containing streptavidin-Dylight (Thermo #21845) and Eu-tagged pY20 antibody (Perkin Elmer #AD0067) was added to quench the reaction. Plates were further incubated 60 min at room temperature with shaking and then read on a Perkin Elmer Envision (λex=337 nm, λem=665 and 615 nm, TRF delay time=20 μs). HTRF signal=10,000*665 nm reading/615 nm reading. After normalization to untreated controls, the percent inhibition of the HTRF signal at each compound concentration was calculated. The plot of percent inhibition vs. the log of compound concentration was fit with a 4-parameter dose response equation to calculate IC50 values.
# T1 sequence (P52333 822-1111 limits assumed): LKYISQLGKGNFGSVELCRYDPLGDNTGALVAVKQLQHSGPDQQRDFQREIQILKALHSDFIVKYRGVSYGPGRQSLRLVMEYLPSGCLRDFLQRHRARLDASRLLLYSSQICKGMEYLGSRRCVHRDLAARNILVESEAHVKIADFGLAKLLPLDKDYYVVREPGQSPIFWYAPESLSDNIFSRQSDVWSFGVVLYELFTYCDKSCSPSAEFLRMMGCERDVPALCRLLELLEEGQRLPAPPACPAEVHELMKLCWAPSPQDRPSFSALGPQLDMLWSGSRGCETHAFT
row,IC50,SMILES
1,≤ 1 nM,"C[C@@H](Nc1cncc(-c2c[nH]c3ncc(-c4cccc(N5CCCC5)c4)cc23)n1)C(=O)NCC(F)(F)F [Example 15-1, N^2-{6-[5-(3-pyrrolidin-1-ylphenyl)-1H-pyrrolo[2,3-b]pyridin-3-yl]pyrazin-2-yl}-N-(2,2,2-trifluoroethyl)-D-alaninamide]"
2,≤ 1 nM,"C[C@@H](Nc1cncc(-c2c[nH]c3ncc(-c4ccc(CC#N)nc4)cc23)n1)C(=O)NCC(F)(F)F [Example 15-2, N^2-(6-{5-[6-(cyanomethyl)pyridin-3-yl]-1H-pyrrolo[2,3-b]pyridin-3-yl}-pyrazin-2-yl)-N-(2,2,2-trifluoroethyl)-D-alaninamide]"
3,≤ 1 nM,"C[C@@H](Nc1cncc(-c2c[nH]c3ncc(-c4ccc(C(O)C(F)(F)F)cc4)cc23)n1)C(=O)NCC(F)(F)F (stereo partly drawn) [Example 15-3, N-(2,2,2-trifluoroethyl)-N^2-(6-{5-[4-(2,2,2-trifluoro-1-hydroxyethyl)phenyl]-1H-pyrrolo[2,3-b]pyridin-3-yl}pyrazin-2-yl)-D-alaninamide]"
4,1 to 10 nM,"C[C@@H](Nc1cncc(-c2c[nH]c3ncc(/C=C/CN(C)C)cc23)n1)C(=O)NCC(F)(F)F [Example 15-4, N^2-(6-{5-[(1E)-3-(dimethylamino)prop-1-en-1-yl]-1H-pyrrolo[2,3-b]pyridin-3-yl}pyrazin-2-yl)-N-(2,2,2-trifluoro-ethyl)-D-alaninamide]"
5,1 to 10 nM,"C[C@@H](Nc1cncc(-c2c[nH]c3ncc(-c4ccnn4C)cc23)n1)C(=O)NCC(F)(F)F [Example 15-5, N^2-{6-[5-(1-methyl-1H-pyrazol-5-yl)-1H-pyrrolo[2,3-b]pyridin-3-yl]pyrazin-2-yl}-N-(2,2,2-trifluoroethyl)-D-alaninamide]"
6,≤ 1 nM,"C[C@@H](Nc1cncc(-c2c[nH]c3ncc(-c4cnc(N)nc4)cc23)n1)C(=O)NCC(F)(F)F [Example 15-6, N^2-{6-[5-(2-aminopyrimidin-5-yl)-1H-pyrrolo[2,3-b]pyridin-3-yl]pyrazin-2-yl}-N-(2,2,2-trifluoroethyl)-D-alaninamide]"
7,≤ 1 nM,"COCC#Cc1cnc2[nH]cc(-c3cncc(N[C@H](C)C(=O)NCC(F)(F)F)n3)c2c1 [Example 15-7, N^2-{6-[5-(3-methoxyprop-1-yn-1-yl)-1H-pyrrolo[2,3-b]pyridin-3-yl]pyrazin-2-yl}-N-(2,2,2-trifluoroethyl)-D-alaninamide]"

# Same assay, conditions: recombinant purified GST-tagged catalytic domain, HTRF format, [ATP] 1.7 μM; read-out: rhJAK3 IC50
row,SMILES,IC50
1,"O=C(NCC(F)(F)F)[C@H]1CNCCN1C(=O)c1cncc(-c2c[nH]c3ncc(Cl)cc23)n1 [Example 7-1, (2R)-1-{[6-(5-chloro-1H-pyrrolo[2,3-b]pyridin-3-yl)-pyrazin-2-yl]carbonyl}-N-(2,2,2-trifluoroethyl)piperazine-2-carboxamide]",100 to 1000 nM
2,"O=C(NCC(F)(F)F)c1ccc(-c2cncc(-c3c[nH]c4ncc(Cl)cc34)n2)cc1 [Example 10, 4-[6-(5-Chloro-1H-pyrrolo[2,3-b]pyridin-3-yl)pyrazin-2-yl]-N-(2,2,2-trifluoroethyl)benzamide]",100 to 1000 nM
3,"O=C(NCC(F)(F)F)C1=C(c2cncc(-c3c[nH]c4ncc(Cl)cc34)n2)CCC1 [Example 10-1, 2-[6-(5-chloro-1H-pyrrolo[2,3-b]pyridin-3-yl)pyrazin-2-yl]-N-(2,2,2-trifluoroethyl)cyclopent-1-ene-1-carboxamide]",1 to 10 nM
4,"C[C@@H](Nc1cncc(-c2c[nH]c3ncc(C4CC4)cc23)n1)C(=O)NCC(F)(F)F [Example 13, N^2-[6-(5-cyclopropyl-1H-pyrrolo[2,3-b]pyridin-3-yl)pyrazin-2-yl]-N-(2,2,2-trifluoroethyl)-D-alaninamide]",≤ 1 nM
5,"C[C@@H](Nc1cncc(-c2c[nH]c3ncc(-c4cnn(C)c4)cc23)n1)C(=O)NCC(F)(F)F [Example 14, N^2-{6-[5-(1-methyl-1H-pyrazol-4-yl)-1H-pyrrolo[2,3-b]pyridin-3-yl]pyrazin-2-yl}-N-(2,2,2-trifluoroethyl)-D-alaninamide]",≤ 1 nM
6,"Cc1cnc2[nH]cc(-c3cncc(N[C@H](C)C(=O)NCC(F)(F)F)n3)c2c1 [Example 15, N2-[6-(5-methyl-1H-pyrrolo[2,3-b]pyridin-3-yl)pyrazin-2-yl]-N-(2,2,2-trifluoroethyl)-D-alaninamide]",1 to 10 nM

# Now from value to compound:
row,IC50,SMILES
1,100 to 1000 nM,"O=C(NCCC(F)(F)F)C1(Oc2cncc(-c3c[nH]c4ncc(Cl)cc34)n2)CC1 [Example 6-3, 1-{[6-(5-chloro-1H-pyrrolo[2,3-b]pyridin-3-yl)pyrazin-2-yl]oxy}-N-(3,3,3-trifluoro-propyl)cyclopropanecarboxamide]"
2,1 to 10 nM,"C[C@H](Oc1cncc(-c2c[nH]c3ncc(Cl)cc23)n1)C(=O)NCC(F)(F)F [Example 6-4, 2(S) 2-{[6-(5-chloro-1H-pyrrolo[2,3-b]pyridin-3-yl)pyrazin-2-yl]oxy}-N-(2,2,2-trifluoroethyl)propanamide]"
3,100 to 1000 nM,"O=C(NCC(F)(F)F)c1cncc(-c2c[nH]c3ncc(Cl)cc23)n1 [Example 7, 6-(5-chloro-1H-pyrrolo[2,3-b]pyridin-3-yl)-N-(2,2,2-trifluoroethyl)pyrazine-2-carboxamide]"
4,10 to 100 nM,"O=C(Cc1cncc(-c2c[nH]c3ncc(Cl)cc23)n1)NCC(F)(F)F [Example 8, 2-[6-(5-chloro-1H-pyrrolo[2,3-b]pyridin-3-yl)pyrazin-2-yl]-N-(2,2,2-trifluoroethyl)acetamide]"
5,100 to 1000 nM,"O=C(Cc1cncc(-c2c[nH]c3ncc(Cl)cc23)n1)N1CCOCC1 [Example 8-1, 5-chloro-3-[6-(2-morpholin-4-yl-2-oxoethyl)pyrazin-2-yl]-1H-pyrrolo-[2,3-b]pyridine]"
6,100 to 1000 nM,"N#CCCNC(=O)Cc1cncc(-c2c[nH]c3ncc(Cl)cc23)n1 [Example 8-2, 2-[6-(5-chloro-1H-pyrrolo[2,3-b]-pyridin-3-yl)pyrazin-2-yl]-N-(2-cyanoethyl) acetamide]"
7,10 to 100 nM,"O=C(Cc1cncc(-c2c[nH]c3ncc(Cl)cc23)n1)NCCC(F)(F)F [Example 8-3, 2-[6-(5-chloro-1H-pyrrolo[2,3-b]-pyridin-3-yl)pyrazin-2-yl]-N-(3,3,3-trifluoropropyl) acetamide]"
8,10 to 100 nM,"N#CCNC(=O)Cc1cncc(-c2c[nH]c3ncc(Cl)cc23)n1 [Example 8-4, 2-[6-(5-chloro-1H-pyrrolo[2,3-b]-pyridin-3-yl)pyrazin-2-yl]-N-(cyanomethyl)acetamide]"
9,10 to 100 nM,"C/C(=C\c1cncc(-c2c[nH]c3ncc(Cl)cc23)n1)C(=O)NCC(F)(F)F [Example 9, (2E)-3-[6-(5-chloro-1H-pyrrolo[2,3-b]pyridin-3-yl)pyrazin-2-yl]-2-methyl-N-(2,2,2-trifluoro-ethyl)prop-2-enamide]"
10,1 to 10 nM,"CC1(C(=O)NCC(F)(F)F)CC1c1cncc(-c2c[nH]c3ncc(Cl)cc23)n1 (stereo not shown) [Example 10-2, 2-[6-(5-chloro-1H-pyrrolo[2,3-b]pyridin-3-yl)pyrazin-2-yl]-1-methyl-N-(2,2,2-trifluoroethyl)cyclopropanecarboxamide]"
11,10 to 100 nM,"CC(Cc1cncc(-c2c[nH]c3ncc(Cl)cc23)n1)C(=O)NCC(F)(F)F (stereo not shown) [Example 11, 3-[6-(5-chloro-1H-pyrrolo[2,3-b]pyridin-3-yl)pyrazin-2-yl]-2-methyl-N-(2,2,2-trifluoroethyl)-propanamide]"
12,10 to 100 nM,"O=C(CCc1cncc(-c2c[nH]c3ncc(Cl)cc23)n1)NCC(F)(F)F [Example 12, 3-[6-(5-chloro-1H-pyrrolo[2,3-b]pyridin-3-yl)pyrazin-2-yl]-N-(2,2,2-trifluoroethyl)propanamide]"
